The target in the assay is T1, human RORγ-LBD (Homo sapiens, UniProt P51449).
T1 construct: made in house; host or cells: E. coli (BL-21)
T1 sequence (P51449 262-518): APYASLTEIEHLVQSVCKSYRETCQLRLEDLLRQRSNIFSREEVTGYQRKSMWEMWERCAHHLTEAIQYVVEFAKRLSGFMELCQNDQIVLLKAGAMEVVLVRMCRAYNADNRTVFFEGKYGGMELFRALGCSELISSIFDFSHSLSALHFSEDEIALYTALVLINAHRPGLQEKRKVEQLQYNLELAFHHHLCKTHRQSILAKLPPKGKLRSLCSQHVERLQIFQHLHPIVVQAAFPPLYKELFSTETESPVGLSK
As to the kind of experiment: ROR gamma coactivator peptide recruitment Alphascreen assay (RORγ-LBD binding to GRIP1 coactivator peptide). It is filed as biochemical. The settings on record: 5 nM human RORγ-LBD, 30 nM 7-β-hydroxycholesterol, 50 nM biotinylated GRIP1 coactivator peptide, overnight incubation at room temperature; read-out: result (pIC50, RORγ coactivator peptide recruitment Alphascreen assay) (converted). In a few lines: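 His/Flag-tagged human RORγ-LBD (aa 262-518, E. coli-expressed, 5 nM) with agonist 7-β-hydroxycholesterol (30 nM) and biotinylated GRIP1 LXXLL peptide (50 nM) in HEPES pH 7.4 buffer, 2.5% DMSO. Compound 1-in-2 dilutions; Alphascreen bead signal read after overnight incubation at room temperature; pIC50 calculated.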
(In general: Bead proximity is the source of the signal in Alpha formats.)
Take `Cc1cc(Cl)c(C(=O)CN(Cc2ccc(Cl)cc2)C(=O)c2cnn([C@H]3CC[C@H](C(=O)O)CC3)c2C(F)(F)F)c(Cl)n1` [Example 543, trans-4-(4-((4-chlorobenzyl)(2-(2,4-dichloro-6-methyl-3-pyridinyl)-2-oxoethyl)carbamoyl)-5-(trifluoromethyl)-1H-pyrazol-1-yl)cyclohexanecarboxylic acid]: the IC50 was 3.31 nM.

As to `Cc1cc(C)n(CCN(Cc2ccc(Cl)cc2)C(=O)c2cnn([C@H]3CC[C@H](C(=O)O)CC3)c2C(F)(F)F)c(=O)c1` [Example 544, trans-4-(4-((4-chlorobenzyl)(2-(4,6-dimethyl-2-oxo-1(2H)-pyridinyl)ethyl)carbamoyl)-5-(trifluoromethyl)-1H-pyrazol-1-yl)cyclohexanecarboxylic acid], the IC50 is 3630 nM.

Turning to `CC(C)(C)CN(CC(=O)c1c(Cl)cccc1Cl)C(=O)c1cnn([C@H]2CC[C@H](C(=O)O)CC2)c1C(F)(F)F` [Example 545, trans-4-(4-((2-(2,6-dichlorophenyl)-2-oxoethyl)(2,2-dimethylpropyl)carbamoyl)-5-(trifluoromethyl)-1H-pyrazol-1-yl)cyclohexanecarboxylic acid], the IC50 was 4.9 nM.

Take `CC1(C)CCC(CN(CCc2c(Cl)cncc2Cl)C(=O)c2cnn([C@H]3CC[C@H](C(=O)O)CC3)c2C(F)(F)F)CC1` [Example 546, trans-4-(4-((2-(3,5-dichloro-4-pyridinyl)ethyl)((4,4-dimethylcyclohexyl)methyl)carbamoyl)-5-(trifluoromethyl)-1H-pyrazol-1-yl)cyclohexanecarboxylic acid]: the IC50 was 11.2 nM.

Consider `CC(C)(C)CN(CCc1c(Cl)cncc1Cl)C(=O)c1cnn([C@H]2CC[C@H](C(=O)O)CC2)c1C(F)(F)F` [Example 547], for which the IC50 is 19.5 nM.

For `CC(C)(C)C#CCN(CCc1c(Cl)cncc1Cl)C(=O)c1cnn([C@H]2CC[C@H](C(=O)O)CC2)c1C(F)(F)F` [Example 548, trans-4-(4-((2-(3,5-dichloro-4-pyridinyl)ethyl)(4,4-dimethyl-2-pentyn-1-yl)carbamoyl)-5-(trifluoromethyl)-1H-pyrazol-1-yl)cyclohexanecarboxylic acid], the IC50 was 11.7 nM.

Turning to `CC1(CN(CCc2c(Cl)cncc2Cl)C(=O)c2cnn([C@H]3CC[C@H](C(=O)O)CC3)c2C(F)(F)F)CCCCC1` [Example 549, trans-4-(4-((2-(3,5-dichloro-4-pyridinyl)ethyl)((1-methylcyclohexyl)methyl)carbamoyl)-5-(trifluoromethyl)-1H-pyrazol-1-yl)cyclohexanecarboxylic acid], the IC50 was 1.74 nM.

`CC1(C)CCC(N(CCc2c(Cl)cncc2Cl)C(=O)c2cnn([C@H]3CC[C@H](C(=O)O)CC3)c2C(F)(F)F)CC1` [Example 550, trans-4-(4-((2-(3,5-dichloro-4-pyridinyl)ethyl)(4,4-dimethylcyclohexyl)carbamoyl)-5-(trifluoromethyl)-1H-pyrazol-1-yl)cyclohexanecarboxylic acid]: the IC50 was 21.4 nM.

In the case of `C[C@@]1(CN(CCc2c(Cl)cncc2Cl)C(=O)c2cnn([C@H]3CC[C@H](C(=O)O)CC3)c2C(F)(F)F)CCCO1` [Example 552, trans-4-(4-((2-(3,5-dichloro-4-pyridinyl)ethyl)(((2S)-2-methyltetrahydro-2-furanyl)methyl)carbamoyl)-5-(trifluoromethyl)-1H-pyrazol-1-yl)cyclohexanecarboxylic acid], the IC50 was 331 nM.

On to `CC1(C)CC(CN(CCc2c(Cl)cncc2Cl)C(=O)c2cnn([C@H]3CC[C@H](C(=O)O)CC3)c2C(F)(F)F)C1` [Example 553, trans-4-(4-((2-(3,5-dichloro-4-pyridinyl)ethyl)((3,3-dimethylcyclobutyl)methyl)carbamoyl)-5-(trifluoromethyl)-1H-pyrazol-1-yl)cyclohexanecarboxylic acid], for which the IC50 was 2.75 nM.

`CC1(C)C[C@H]1CN(CCc1c(Cl)cncc1Cl)C(=O)c1cnn([C@H]2CC[C@H](C(=O)O)CC2)c1C(F)(F)F` [Example 554, trans-4-(4-((2-(3,5-dichloro-4-pyridinyl)ethyl)(((1R)-2,2-dimethylcyclopropyl)methyl)carbamoyl)-5-(trifluoromethyl)-1H-pyrazol-1-yl)cyclohexanecarboxylic acid]: the IC50 is 7.08 nM.

On to `CC1(C)CC(CN(CCc2c(Cl)cncc2Cl)C(=O)c2cnn([C@H]3CC[C@](C)(C(=O)O)CC3)c2C(F)(F)F)C1` [Example 556, trans-4-(4-((2-(3,5-dichloro-4-pyridinyl)ethyl)((3,3-dimethylcyclobutyl)methyl)carbamoyl)-5-(trifluoromethyl)-1H-pyrazol-1-yl)-1-methylcyclohexanecarboxylic acid], for which the IC50 is 2.4 nM.

With `CC1(CN(CCc2c(Cl)cncc2Cl)C(=O)c2cnn([C@H]3CC[C@H](C(=O)O)CC3)c2C(F)(F)F)CCCC1` [Example 557, trans-4-(4-((2-(3,5-dichloro-4-pyridinyl)ethyl)((1-methylcyclopentyl)methyl)carbamoyl)-5-(trifluoromethyl)-1H-pyrazol-1-yl)cyclohexanecarboxylic acid], the IC50 is 2.82 nM.

`CC1(C)[C@@H]2C[C@H](N(CC(=O)c3c(Cl)cncc3Cl)C(=O)c3cnn([C@H]4CC[C@](C)(C(=O)O)CC4)c3C(F)(F)F)C[C@@H]21` [Example 558, trans-4-(4-((2-(3,5-dichloro-4-pyridinyl)-2-oxoethyl)((1R,3r,5S)-6,6-dimethylbicyclo[3.1.0]hex-3-yl)carbamoyl)-5-(trifluoromethyl)-1H-pyrazol-1-yl)-1-methylcyclohexanecarboxylic acid]: the IC50 was 2.45 nM.

`CC1(C)CC(CN(CC(=O)c2c(Cl)cncc2Cl)C(=O)c2cnn([C@H]3CC[C@](C)(C(=O)O)CC3)c2C(F)(F)F)C1` [Example 559, trans-4-(4-((2-(3,5-dichloro-4-pyridinyl)-2-oxoethyl)((3,3-dimethylcyclobutyl)methyl)carbamoyl)-5-(trifluoromethyl)-1H-pyrazol-1-yl)-1-methylcyclohexanecarboxylic acid]: the IC50 is 7.08 nM.

As for `CC1(CN(CCc2c(Cl)cncc2Cl)C(=O)c2cnn([C@H]3CC[C@@H](C(=O)O)CC3)c2C(F)(F)F)CCC1` [Example 560, cis-4-(4-((2-(3,5-dichloro-4-pyridinyl)ethyl)((1-methylcyclobutyl)methyl)carbamoyl)-5-(trifluoromethyl)-1H-pyrazol-1-yl)cyclohexanecarboxylic acid], the IC50 was 295 nM.

Turning to `CC1(CN(CCc2c(Cl)cncc2Cl)C(=O)c2cnn([C@H]3CC[C@](C)(C(=O)O)CC3)c2C(F)(F)F)CCC1` [Example 562, trans-4-(4-((2-(3,5-dichloro-4-pyridinyl)ethyl)((1-methylcyclobutyl)methyl)carbamoyl)-5-(trifluoromethyl)-1H-pyrazol-1-yl)-1-methylcyclohexanecarboxylic acid], the IC50 was 3.72 nM.

For the compound `CC1(CN(CCc2c(Cl)cncc2Cl)C(=O)c2cnn([C@H]3CC[C@@H](C(=O)O)CC3)c2C(F)(F)F)CC1` [Example 563, cis-4-(4-((2-(3,5-dichloro-4-pyridinyl)ethyl)((1-methylcyclopropyl)methyl)carbamoyl)-5-(trifluoromethyl)-1H-pyrazol-1-yl)cyclohexanecarboxylic acid], the IC50 is 204 nM.

Turning to `CC1(CN(CCc2c(Cl)cncc2Cl)C(=O)c2cnn([C@H]3CC[C@](C)(C(=O)O)CC3)c2C(F)(F)F)CC1` [Example 564, trans-4-(4-((2-(3,5-dichloro-4-pyridinyl)ethyl)((1-methylcyclopropyl)methyl)carbamoyl)-5-(trifluoromethyl)-1H-pyrazol-1-yl)-1-methylcyclohexanecarboxylic acid], the IC50 is 4.17 nM.

Consider `Cc1cc(Cl)c(C(=O)CN(CC2CC3(CC3)C2)C(=O)c2cnn([C@H]3CC[C@@H](C(=O)O)CC3)c2C(F)(F)F)c(Cl)c1` [Example 565, cis-4-(4-((2-(2,6-dichloro-4-methylphenyl)-2-oxoethyl)(spiro[2.3]hex-5-ylmethyl)carbamoyl)-5-(trifluoromethyl)-1H-pyrazol-1-yl)cyclohexanecarboxylic acid], for which the IC50 was 18.2 nM.

On to `C[C@]1(C(=O)O)CC[C@H](n2ncc(C(=O)N(CC(=O)c3c(Cl)cccc3Cl)CC3CC4(CC4)C3)c2C(F)(F)F)CC1` [Example 566, trans-4-(4-((2-(2,6-dichlorophenyl)-2-oxoethyl)(spiro[2.3]hex-5-ylmethyl)carbamoyl)-5-(trifluoromethyl)-1H-pyrazol-1-yl)-1-methylcyclohexanecarboxylic acid], for which the IC50 is 3.09 nM.

On to `O=C(CN(CC1CC2(CC2)C1)C(=O)c1cnn([C@H]2CC[C@H](C(=O)O)CC2)c1C(F)(F)F)c1c(Cl)cccc1Cl` [Example 567, trans-4-(4-((2-(2,6-dichlorophenyl)-2-oxoethyl)(spiro[2.3]hex-5-ylmethyl)carbamoyl)-5-(trifluoromethyl)-1H-pyrazol-1-yl)cyclohexanecarboxylic acid], for which the IC50 was 2.4 nM.

Regarding `Cc1cc(Cl)c(C(=O)CN(CC(C)(C)C)C(=O)c2cnn([C@H]3CC[C@](C)(C(=O)O)CC3)c2C(F)(F)F)c(Cl)c1` [Example 568, trans-4-(4-((2-(2,6-dichloro-4-methylphenyl)-2-oxoethyl)(2,2-dimethylpropyl)carbamoyl)-5-(trifluoromethyl)-1H-pyrazol-1-yl)-1-methylcyclohexanecarboxylic acid], the IC50 was 3.39 nM.
